{"source": "patent US10793531B2", "about": "“Triazole derivatives and their use as PDE4 activators” (MIRONID LIMITED, priority 2015, dated 2020)", "biological_target": "T1, full length human PDE4B2 short isoform (Homo sapiens, UniProt Q07343)", "T1 construct": "the full length human PDE4B2 short isoform; made in house; cytosol fraction of the lysate", "T1 sequence (Q07343 1-564 isoform Q07343-2)": "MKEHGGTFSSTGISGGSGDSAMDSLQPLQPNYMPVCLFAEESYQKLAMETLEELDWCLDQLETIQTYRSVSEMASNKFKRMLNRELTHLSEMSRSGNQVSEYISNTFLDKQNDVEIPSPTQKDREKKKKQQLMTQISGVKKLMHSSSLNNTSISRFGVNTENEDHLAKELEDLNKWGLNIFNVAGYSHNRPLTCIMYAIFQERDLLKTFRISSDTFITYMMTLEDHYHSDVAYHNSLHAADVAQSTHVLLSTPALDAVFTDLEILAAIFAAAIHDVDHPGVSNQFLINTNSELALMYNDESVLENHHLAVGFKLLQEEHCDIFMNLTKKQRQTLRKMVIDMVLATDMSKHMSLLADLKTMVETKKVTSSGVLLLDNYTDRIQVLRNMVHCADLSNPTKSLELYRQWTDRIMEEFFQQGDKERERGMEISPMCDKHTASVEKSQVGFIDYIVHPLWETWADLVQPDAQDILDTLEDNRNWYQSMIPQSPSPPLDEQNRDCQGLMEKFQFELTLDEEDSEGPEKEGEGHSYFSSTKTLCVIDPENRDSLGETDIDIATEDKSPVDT", "experiment": "PDE4 radio-assay, PDE4B2 short form (Experiment 1)", "assay_type": "biochemical", "conditions": "method of Experiment 1; FIG. 4", "protocol": "One suitable method of detecting whether or not a compound is capable of serving as an activator of a PDE4 long form is using a two-step radio-assay procedure described in Experiment 1. In summary, the method involves incubating a PDE4 long form with a test small molecule activator, together with [^3H]-labelled cAMP to assess alterations in the breakdown of cAMP to the 5′-adenosine monophosphate (5′-AMP) product. A sample of the reaction mixture from such an incubation is subsequently treated with snake venom 5′-nucleotidase to allow conversion of the nucleotide [^3H]-labelled 5′-AMP to the uncharged nucleoside [^3H]-labelled adenosine, which can be separated and quantified to assess PDE4 activity and the effect of the test compound (Thompson, W. J. and Appleman, M. M. Biochemistry 10: 311-316, 1971, with some modifications as described in: Marchmont, R. J. and Houslay, M. D. Biochem J. 187: 381-92, 1980).\nHEK 293 cells were transfected with pDEST™ PDE4 expression vectors using Lipofectamine LTX/Plus reagent (Invitrogen) as outlined by the manufacturer and clonal isolates expanded to obtain cell lines that stably expressed the full-length human PDE4D5, PDE4A4 and PDE4B1 long isoforms and the full length human PDE4B2 short isoform. These were called the HEK-PDE4D5, HEK-PDE4A4, HEK-PDE4B1 and HEK-PDE4B2 cell lines, respectively.\nHEK-PDE4D5 cells were seeded out in 100 mm plates and incubated at 37° C. in an atmosphere of 5% CO2, 95% air. Cell lysates were prepared using KHEM buffer [50 mM KCl, 10 mM EGTA, 50 mM HEPES (pH 7.2), 1.92 mM MgCl2].\nTo prepare the cell lysates, the 100 mm plates containing the cells were placed on ice and washed with ice-cold PBS (phosphate buffered saline, pH 7.4). KHEM buffer (500 μl) was added to the cells. Cells were then scraped off the plate and triturated using a needle (BD Microlance™ 0.8, 40 mm). The lysed cells were then centrifuged at 2000 rpm for 10 minutes to remove cell debris and the supernatant (cell lysate containing recombinant PDE4D5) was transferred to a fresh tube and kept on ice.\nThe cell lysate containing recombinant PDE4D5 was transferred into a centrifuge tube and placed into an ultracentrifuge (BECKMAN COULTER) and spun at high speed (100,000 g) for 30 minutes at 4° C. The cytosol fraction was then collected and its protein amount determined using a BCA protein assay.\nPDE assays were performed using a final concentration of 10 mM Tris/5 mM MgCl2 and 1 μM [3H]-cAMP (Perkin Elmer) plus PDE4D5 cell lysate cytosol fraction, containing over-expressed PDE4D5, with and without test compound. Incubations were performed at 30° C. for 5 minutes. […] Tubes were vortexed thoroughly to mix and the recovered [3H]-adenosine was quantified by measuring counts over 1 minute in a scintillation counter.", "data": [{"smiles": "CCc1nc(-c2ccc(Cl)c(F)c2)nn1CC(=O)NCc1cccc(F)c1", "note": "[Example A, N-(3-Fluorobenzyl)-2-[3-(4-chloro-3-fluorophenyl)-5-ethyl-1H-1,2,4-triazol-1-yl]acetamide]", "values": [{"measurement": "activation of PDE4B2, a short form of PDE4 (in words)", "result": "lack of activation"}]}]}
